This passage reports melting point results from patent US6583154B1, “Compounds and methods which modulate feeding behavior and related diseases” (Amgen Inc., priority 1998, dated 2003).

Where a name gives a salt, the structure may show the parent alone. Some results are limits rather than exact numbers.

With `COc1cccc2cc(-c3cc4nc(C)nc(N5CCCCC5)c4[nH]3)oc12.Cl` (hydrate or solvate), the melting point was > 280 °C.
To `Cc1nc(N2CCCCC2)c2[nH]c(-c3ccc4c(c3)CCO4)cc2n1.Cl` (hydrate or solvate) [Example 131, 5-[2-Methyl-4-piperidylpyrrolo[4,5-d]pyrimidin-6-yl]-2,3-dihydrobenzo[b]furan Hydrochloride Hydrate] belongs 170 to 172 °C; to `Cc1nc(N2CCCCC2)c2[nH]c(-c3ccc(O)cc3)c(C)c2n1.Cl` (hydrate or solvate) [Example 137, 4-[2,7-Dimethyl-4-piperidylpyrrolo[4,5-d]pyrimidin-6-yl]phenol Hydrochloride Hydrate], > 280 °C; to `Cc1nc(N2CCCCC2)c2[nH]c(-c3ccc(N)cc3)cc2n1` (as salt: hydrochloride), > 280 °C.
Take `Cl.c1csc(-c2cc3ncnc(N4CCCCC4)c3[nH]2)c1`: the melting point is > 280 °C.
`Cc1c(-c2ccccc2)n(C)c2c(N3CCCCC3)ncnc12` [Example 155, 5,7-Dimethyl-6-phenyl-4-piperidylpyrrolo[3,2-d]pyrimidine] came in with a melting point of 123 to 125 °C.
For `Cc1nc(N2CCCCC2)c2[nH]c(-c3ccccc3C(F)(F)F)cc2n1.Cl` (hydrate or solvate), the melting point was > 280 °C.
`Cc1nc(N2CCCCC2)c2[nH]c(-c3ccc(F)c(F)c3)cc2n1.Cl` (hydrate or solvate) [Example 121, 6-(3,4-Difluorophenyl)-2-methyl-4-piperidylpyrrolo[3,2-d]pyrimidine Hydrochloride Hydrate] showed a melting point of 243 to 245 °C.
In the case of `Cc1nc(N2CCCCC2)c2[nH]c(-c3ccc(Cl)cc3)c(N3CCCC3)c2n1.Cl` (hydrate or solvate), the melting point was > 280 °C.
`COc1ccc(-c2[nH]c3c(N4CCCCC4)nc(C)nc3c2C)cc1.Cl`: the melting point was > 280 °C.
Turning to `Cc1nc(N2CCCCC2)c2[nH]c(-c3ccc(S(C)(=O)=O)cc3)cc2n1.Cl` (hydrate or solvate) [Example 142, 1-[2-Methyl-4-piperidylpyrrolo[4,5-d]pyrimidin-6-yl]-4-(methylsulfonyl)benzene Hydrochloride Monohydrate], the melting point lay in the range of 279 to 281 °C.
Under `Cc1nc(N2CCCCC2)c2[nH]c(-c3ccccc3Cl)cc2n1.Cl` (hydrate or solvate) stands 240 to 241.5 °C; under `Cc1nc(N2CCCCC2C)c2[nH]c(-c3ccc(F)cc3)cc2n1.Cl` (stereo not shown) (hydrate or solvate), 274 to 276 °C; under `Cc1nc(N2CCCCC2)c2[nH]c(-c3sc(C)nc3C)cc2n1.Cl` (hydrate or solvate), 272 to 273.5 °C.
With `Cc1nc(N2CCCCC2)c2[nH]c(-c3ccc(O)cc3)cc2n1.Cl` (hydrate or solvate) [Example 72, 2-methyl-4-piperidyl-6-(4-hydroxyphenyl)pyrrolo[3,2-d]pyrimidine], the melting point is > 300 °C (dec.).
Under `Cc1nc(N2CCCCC2)c2[nH]c(Cc3ccc(F)cc3)cc2n1.Cl` stands 254 to 255 °C.
Regarding `Cc1nc(N2CCN(c3ccccc3)CC2)c2[nH]c(-c3ccccc3)cc2n1.Cl` (hydrate or solvate), the melting point was 232 to 234.5 °C.
On to `Cc1nc(N2CCN(S(=O)(=O)c3cccc4ccccc34)CC2)c2[nH]c(-c3ccccc3)cc2n1.Cl` (hydrate or solvate), for which the melting point was 195 °C (dec.).
The molecule `Cc1nc(N2CCCCC2)c2[nH]c(-c3ccc(SC(F)(F)F)cc3)cc2n1.Cl` (hydrate or solvate) [Example 123, Trifluoro[4-(2-methyl-4-piperidylpyrrolo[4,5-d]pyrimidin-6-yl)phenylthio]methane Hydrochloride Monohydrate] gave a melting point of 270 to 272 °C.
